Experiment: recombinant UMI read abundance after kanamycin selection (control-corrected) (log10(CPM+1)); higher = more efficient recombination; extreme values may be limits of the assay; sequences stand for … in AGTGCAGAGAAAATCGGCCAGTTTTCTCTGCCTGCAGTCCGCATGCCGTGGGACCCCTTGGGTTCTAACCTGTTGCCTAGATTTATGCAGCGGACTGCCTTTCTCCCAAAGTGATAAACCGG…AGGTTGGTTTCACT; site = the 11-nt donor
Method: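 Pooled E. coli donor-specificity screen for the IS621 bridge recombinase. Each library member carries a reprogrammed 11-nt donor and a full-length LE bridge RNA expressed in cis from the natural promoter, with a paired donor-binding loop (8-nt LDG + 4-nt RDG) and a target-binding loop fixed to T5. It is co-electroporated with a T5 target plasmid; recombinase is induced with 0.07 mM IPTG and recombinants are selected on kanamycin. UMIs are counted as CPM, averaged over two biological replicates and corrected by the unselected control. Molecule = full bridge RNA written as DNA, built from the T5 scaffold: LDG = donor specificity nt 1-8, RDG = reverse complement of nt 8-11.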
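Also: IS621 bridge recombinase in Escherichia coli cells against a fixed T5 target plasmid.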

| Sequence | recombinant UMI read abundance (log10) |
| --- | --- |
| ACTAAAACATGGACCGGTTTTCCCGGTAATCCGTATTTGAG (site ACTACAACTCT) | 0.0124 |
| ACTAAAACATGGACCGGTTTTCCCGGTAATCCGTATTTGAG (site ACTAGAACTCT) | 0.267 |
| ACTAAAACATGGACCGGTTTTCCCGGTAATCCGTATTTGAG (site ACTATAACTCT) | 0.376 |
| ACTAAAGCATGGACCGGTTTTCCCGGTAATCCGTATTTGAT (site ACTAAAGCTAT) | 2.22 |
| ACTAAAGCATGGACCGGTTTTCCCGGTAATCCGTATTTGAT (site CCTAAAGCTAT) | 0 |
| ACTAAAGCATGGACCGGTTTTCCCGGTAATCCGTATTTGAT (site GCTAAAGCTAT) | 0.0031 |
| ACTAAAGCATGGACCGGTTTTCCCGGTAATCCGTATTTGAT (site TCTAAAGCTAT) | 0.855 |
| ACTACACCATGGACCGGTTTTCCCGGTAATCCGTATTTGGT (site ACTACACCTAC) | 0 |
| ACTACCTCATGGACCGGTTTTCCCGGTAATCCGTATTTGTT (site ACTACCTCTAA) | 1.19 |
| ACTACTGCATGGACCGGTTTTCCCGGTAATCCGTATTTGCC (site ACTACTGCTGG) | 1.54 |
| ACTACTGCATGGACCGGTTTTCCCGGTAATCCGTATTTGCC (site CCTACTGCTGG) | 1.45 |
| ACTACTGCATGGACCGGTTTTCCCGGTAATCCGTATTTGCC (site GCTACTGCTGG) | 0.946 |
| ACTACTGCATGGACCGGTTTTCCCGGTAATCCGTATTTGCC (site TCTACTGCTGG) | 1.03 |
| ACTAGACCATGGACCGGTTTTCCCGGTAATCCGTATTTGAG (site ACTAGAACTCT) | 0.103 |
| ACTAGACCATGGACCGGTTTTCCCGGTAATCCGTATTTGAG (site ACTAGACCTCT) | 0.0176 |
| ACTAGACCATGGACCGGTTTTCCCGGTAATCCGTATTTGAG (site ACTAGAGCTCT) | 0.0203 |
| ACTAGACCATGGACCGGTTTTCCCGGTAATCCGTATTTGAG (site ACTAGATCTCT) | 1.02 |
| ACTAGAGCATGGACCGGTTTTCCCGGTAATCCGTATTTGGT (site ACTAGAGCTAC) | 1.72 |
| ACTAGAGCATGGACCGGTTTTCCCGGTAATCCGTATTTGGT (site ACTAGCGCTAC) | 0.398 |

| Sequence | recombinant UMI read abundance (log10) |
| --- | --- |
| ACTAGAGCATGGACCGGTTTTCCCGGTAATCCGTATTTGGT (site ACTAGGGCTAC) | 0.647 |
| ACTAGAGCATGGACCGGTTTTCCCGGTAATCCGTATTTGGT (site ACTAGTGCTAC) | 0.4 |
| ACTAGTACATGGACCGGTTTTCCCGGTAATCCGTATTTGAC (site ACTAGTACTGT) | 2.14 |
| ACTAGTCCATGGACCGGTTTTCCCGGTAATCCGTATTTGGT (site ACTAGTACTAC) | 0.0112 |
| ACTAGTCCATGGACCGGTTTTCCCGGTAATCCGTATTTGGT (site ACTAGTCCTAC) | 0.00473 |
| ACTAGTCCATGGACCGGTTTTCCCGGTAATCCGTATTTGGT (site ACTAGTGCTAC) | 0.00689 |
| ACTAGTCCATGGACCGGTTTTCCCGGTAATCCGTATTTGGT (site ACTAGTTCTAC) | 0.244 |
| ACTAGTGCATGGACCGGTTTTCCCGGTAATCCGTATTTGGC (site ACTAGTGCTAC) | 0.0845 |
| ACTAGTGCATGGACCGGTTTTCCCGGTAATCCGTATTTGGC (site ACTAGTGCTCC) | 0.0166 |
| ACTAGTGCATGGACCGGTTTTCCCGGTAATCCGTATTTGGC (site ACTAGTGCTGC) | 2.6 |
| ACTAGTGCATGGACCGGTTTTCCCGGTAATCCGTATTTGGC (site ACTAGTGCTTC) | 0.32 |
| ACTAGTGCATGGACCGGTTTTCCCGGTAATCCGTATTTGGT (site AATAGTGCTAC) | 0.282 |
| ACTAGTGCATGGACCGGTTTTCCCGGTAATCCGTATTTGGT (site ACAAGTGCTAC) | 0.762 |
| ACTAGTGCATGGACCGGTTTTCCCGGTAATCCGTATTTGGT (site ACCAGTGCTAC) | 1.02 |
| ACTAGTGCATGGACCGGTTTTCCCGGTAATCCGTATTTGGT (site ACGAGTGCTAC) | 0.586 |
| ACTAGTGCATGGACCGGTTTTCCCGGTAATCCGTATTTGGT (site ACTAATGCTAC) | 0.409 |
| ACTAGTGCATGGACCGGTTTTCCCGGTAATCCGTATTTGGT (site ACTACTGCTAC) | 0.285 |
| ACTAGTGCATGGACCGGTTTTCCCGGTAATCCGTATTTGGT (site ACTAGAGCTAC) | 1.08 |
| ACTAGTGCATGGACCGGTTTTCCCGGTAATCCGTATTTGGT (site ACTAGCGCTAC) | 0.00815 |

| Sequence | recombinant UMI read abundance (log10) |
| --- | --- |
| ACTAGTGCATGGACCGGTTTTCCCGGTAATCCGTATTTGGT (site ACTAGGGCTAC) | 0.0226 |
| ACTAGTGCATGGACCGGTTTTCCCGGTAATCCGTATTTGGT (site ACTAGTACTAC) | 0.998 |
| ACTAGTGCATGGACCGGTTTTCCCGGTAATCCGTATTTGGT (site ACTAGTCCTAC) | 0.0182 |
| ACTAGTGCATGGACCGGTTTTCCCGGTAATCCGTATTTGGT (site ACTAGTGCTAA) | 0.00318 |
| ACTAGTGCATGGACCGGTTTTCCCGGTAATCCGTATTTGGT (site ACTAGTGCTAC) | 1.55 |
| ACTAGTGCATGGACCGGTTTTCCCGGTAATCCGTATTTGGT (site ACTAGTGCTAG) | 0.699 |
| ACTAGTGCATGGACCGGTTTTCCCGGTAATCCGTATTTGGT (site ACTAGTGCTAT) | 1.2 |
| ACTAGTGCATGGACCGGTTTTCCCGGTAATCCGTATTTGGT (site ACTAGTGCTCC) | 0.0239 |
| ACTAGTGCATGGACCGGTTTTCCCGGTAATCCGTATTTGGT (site ACTAGTGCTGC) | 0 |
| ACTAGTGCATGGACCGGTTTTCCCGGTAATCCGTATTTGGT (site ACTAGTGCTTC) | 0.0165 |
| ACTAGTGCATGGACCGGTTTTCCCGGTAATCCGTATTTGGT (site ACTAGTTCTAC) | 0.264 |
| ACTAGTGCATGGACCGGTTTTCCCGGTAATCCGTATTTGGT (site ACTATTGCTAC) | 0.975 |
| ACTAGTGCATGGACCGGTTTTCCCGGTAATCCGTATTTGGT (site ACTCGTGCTAC) | 0.265 |
| ACTAGTGCATGGACCGGTTTTCCCGGTAATCCGTATTTGGT (site ACTGGTGCTAC) | 0.583 |
| ACTAGTGCATGGACCGGTTTTCCCGGTAATCCGTATTTGGT (site ACTTGTGCTAC) | 0.26 |
| ACTAGTGCATGGACCGGTTTTCCCGGTAATCCGTATTTGGT (site AGTAGTGCTAC) | 0.424 |
| ACTAGTGCATGGACCGGTTTTCCCGGTAATCCGTATTTGGT (site ATTAGTGCTAC) | 1.01 |
| ACTAGTGCATGGACCGGTTTTCCCGGTAATCCGTATTTGGT (site CCTAGTGCTAC) | 0.821 |
| ACTAGTGCATGGACCGGTTTTCCCGGTAATCCGTATTTGGT (site GCTAGTGCTAC) | 0.338 |

— the supplement of paper PMC11208160
